Measurements published in ChEMBL document CHEMBL1833857, “Histone deacetylase activators: N-acetylthioureas serve as highly potent and isozyme selective activators for human histone deacetylase-8 on a fluorescent substrate” (Bioorg Med Chem Lett, 2011).
The source made the active and inactive calls. The rule behind the calls is not given here.

Tests used:
[1] = target: T1, Histone deacetylase 8 (Homo sapiens) (UniProt Q9BY41); test: Activation of recombinant human HDAC8 assessed as ratio of the initial rate of reaction in the absence and presence of compound using Fluor-de-Lys as substrate at 10 uM by spectrofluorometry
T1 sequence (whole entry): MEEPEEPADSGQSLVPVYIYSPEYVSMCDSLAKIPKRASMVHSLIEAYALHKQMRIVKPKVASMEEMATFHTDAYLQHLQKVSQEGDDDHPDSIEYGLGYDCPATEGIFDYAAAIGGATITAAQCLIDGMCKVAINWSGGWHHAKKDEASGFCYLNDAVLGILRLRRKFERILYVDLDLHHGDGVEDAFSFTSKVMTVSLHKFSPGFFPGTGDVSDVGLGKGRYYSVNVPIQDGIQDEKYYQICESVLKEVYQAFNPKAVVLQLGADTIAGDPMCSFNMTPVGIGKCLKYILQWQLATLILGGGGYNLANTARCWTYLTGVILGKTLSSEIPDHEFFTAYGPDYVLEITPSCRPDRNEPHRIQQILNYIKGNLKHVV

[2] = target: Histone deacetylase 1 (Homo sapiens) (UniProt Q13547); test: Inhibition of HDAC1 using Fluor-de-Lys as substrate at 100 uM by spectrofluorometry
[3] = target: Histone deacetylase 4 (Homo sapiens) (UniProt P56524); test: Activation of HDAC4 using trifluoroacetyl-lysine containing fluorogenic substrate at 100 uM by spectrofluorometry
[4] = target: T2, Histone deacetylase 11 (Homo sapiens) (UniProt Q96DB2); test: Inhibition of HDAC11 using Fluor-de-Lys as substrate at 100 uM by spectrofluorometry
T2 sequence (whole entry): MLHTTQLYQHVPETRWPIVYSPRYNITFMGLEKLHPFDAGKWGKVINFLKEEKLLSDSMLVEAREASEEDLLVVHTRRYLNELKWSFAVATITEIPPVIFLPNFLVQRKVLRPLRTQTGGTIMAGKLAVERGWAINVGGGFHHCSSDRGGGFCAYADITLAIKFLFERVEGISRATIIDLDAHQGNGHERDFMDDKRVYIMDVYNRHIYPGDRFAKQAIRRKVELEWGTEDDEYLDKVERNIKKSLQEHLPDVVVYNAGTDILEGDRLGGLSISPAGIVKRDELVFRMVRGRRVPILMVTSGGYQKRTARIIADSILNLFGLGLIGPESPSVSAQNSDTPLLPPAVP

[5] = target: Histone deacetylase 1 (Homo sapiens) (UniProt Q13547); test: Activation of HDAC1 using Fluor-de-Lys as substrate at 10 uM by spectrofluorometry
[6] = target: Histone deacetylase 3 (Homo sapiens) (UniProt O15379); test: Inhibition of HDAC3 using Fluor-de-Lys as substrate at 100 uM by spectrofluorometry
[7] = target: Histone deacetylase 1 (Homo sapiens) (UniProt Q13547); test: Activation of HDAC1 using Fluor-de-Lys as substrate at 100 uM by spectrofluorometry
[8] = target: Histone deacetylase 4 (Homo sapiens) (UniProt P56524); test: Inhibition of HDAC4 using trifluoroacetyl-lysine containing fluorogenic substrate at 100 uM by spectrofluorometry
[9] = target: T3, Protein deacetylase HDAC6 (Homo sapiens) (UniProt Q9UBN7); test: Inhibition of HDAC6 using Fluor-de-Lys as substrate at 100 uM by spectrofluorometry
T3 sequence (whole entry): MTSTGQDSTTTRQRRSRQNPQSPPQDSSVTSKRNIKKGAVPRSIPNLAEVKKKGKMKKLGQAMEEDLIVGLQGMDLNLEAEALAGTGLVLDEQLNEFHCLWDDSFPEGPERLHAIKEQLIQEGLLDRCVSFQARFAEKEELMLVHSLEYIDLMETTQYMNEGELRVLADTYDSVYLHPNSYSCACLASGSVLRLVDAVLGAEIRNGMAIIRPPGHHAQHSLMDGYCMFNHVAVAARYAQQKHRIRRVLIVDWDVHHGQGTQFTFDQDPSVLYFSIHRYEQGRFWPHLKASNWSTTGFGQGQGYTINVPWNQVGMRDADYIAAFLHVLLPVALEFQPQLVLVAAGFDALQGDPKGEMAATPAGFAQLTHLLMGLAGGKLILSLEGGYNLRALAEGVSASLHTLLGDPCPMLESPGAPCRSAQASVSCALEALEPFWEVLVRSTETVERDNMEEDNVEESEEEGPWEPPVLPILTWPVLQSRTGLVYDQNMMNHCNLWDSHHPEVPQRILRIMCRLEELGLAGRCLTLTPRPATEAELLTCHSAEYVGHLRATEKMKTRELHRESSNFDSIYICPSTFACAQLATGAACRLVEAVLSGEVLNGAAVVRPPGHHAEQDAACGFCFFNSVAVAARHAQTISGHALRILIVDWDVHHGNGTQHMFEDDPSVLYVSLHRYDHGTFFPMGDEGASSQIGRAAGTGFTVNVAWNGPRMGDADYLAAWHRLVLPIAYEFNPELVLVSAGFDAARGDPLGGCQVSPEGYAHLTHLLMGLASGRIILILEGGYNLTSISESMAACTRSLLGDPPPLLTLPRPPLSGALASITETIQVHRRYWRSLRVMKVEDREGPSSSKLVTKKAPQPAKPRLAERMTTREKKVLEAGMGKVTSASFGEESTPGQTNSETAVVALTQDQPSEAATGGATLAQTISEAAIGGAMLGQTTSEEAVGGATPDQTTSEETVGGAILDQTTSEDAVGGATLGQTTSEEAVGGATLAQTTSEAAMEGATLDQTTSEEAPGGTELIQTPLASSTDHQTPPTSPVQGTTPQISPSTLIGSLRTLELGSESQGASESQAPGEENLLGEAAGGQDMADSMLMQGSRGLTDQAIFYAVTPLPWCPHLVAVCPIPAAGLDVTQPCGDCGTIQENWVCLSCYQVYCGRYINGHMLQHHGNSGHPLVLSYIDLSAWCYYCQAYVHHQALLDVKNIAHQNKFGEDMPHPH

[10] = target: Histone deacetylase 4 (Homo sapiens) (UniProt P56524); test: Activation of HDAC4 using trifluoroacetyl-lysine containing fluorogenic substrate at 10 uM by spectrofluorometry
[11] = target: Histone deacetylase 2 (Homo sapiens) (UniProt Q92769); test: Inhibition of HDAC2 using Fluor-de-Lys as substrate at 100 uM by spectrofluorometry
[12] = target: T4, Polyamine deacetylase HDAC10 (Homo sapiens) (UniProt Q969S8); test: Inhibition of HDAC10 using Fluor-de-Lys as substrate at 100 uM by spectrofluorometry
T4 sequence (whole entry): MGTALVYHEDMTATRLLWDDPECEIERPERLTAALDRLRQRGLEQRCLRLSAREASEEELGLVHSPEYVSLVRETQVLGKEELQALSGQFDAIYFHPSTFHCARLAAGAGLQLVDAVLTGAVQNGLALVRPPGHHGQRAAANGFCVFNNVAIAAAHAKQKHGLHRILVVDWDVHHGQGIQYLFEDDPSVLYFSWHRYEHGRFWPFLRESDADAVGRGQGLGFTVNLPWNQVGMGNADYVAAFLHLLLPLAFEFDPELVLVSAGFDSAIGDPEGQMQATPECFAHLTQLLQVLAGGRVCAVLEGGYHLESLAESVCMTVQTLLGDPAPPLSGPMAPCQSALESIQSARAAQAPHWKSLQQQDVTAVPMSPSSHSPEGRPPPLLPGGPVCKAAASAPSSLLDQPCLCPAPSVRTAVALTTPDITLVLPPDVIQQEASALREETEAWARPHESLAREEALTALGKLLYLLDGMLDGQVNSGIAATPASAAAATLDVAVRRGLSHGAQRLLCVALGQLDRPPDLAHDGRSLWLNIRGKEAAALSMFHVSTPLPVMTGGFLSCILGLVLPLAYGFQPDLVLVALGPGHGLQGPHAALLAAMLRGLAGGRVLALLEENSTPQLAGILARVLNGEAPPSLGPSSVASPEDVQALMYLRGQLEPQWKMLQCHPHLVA

[13] = target: Histone deacetylase 2 (Homo sapiens) (UniProt Q92769); test: Activation of HDAC2 using Fluor-de-Lys as substrate at 10 uM by spectrofluorometry
[14] = target: Histone deacetylase 2 (Homo sapiens) (UniProt Q92769); test: Activation of HDAC2 using Fluor-de-Lys as substrate at 100 uM by spectrofluorometry
[15] = target: Histone deacetylase 3 (Homo sapiens) (UniProt O15379); test: Activation of HDAC3 using Fluor-de-Lys as substrate at 100 uM by spectrofluorometry
[16] = target: Histone deacetylase 3 (Homo sapiens) (UniProt O15379); test: Activation of HDAC3 using Fluor-de-Lys as substrate at 10 uM by spectrofluorometry
[17] = target: T4, Polyamine deacetylase HDAC10 (Homo sapiens); test: Activation of HDAC10 using Fluor-de-Lys as substrate at 10 uM by spectrofluorometry
[18] = target: T4, Polyamine deacetylase HDAC10 (Homo sapiens); test: Activation of HDAC10 using Fluor-de-Lys as substrate at 100 uM by spectrofluorometry
[19] = target: T3, Protein deacetylase HDAC6 (Homo sapiens); test: Activation of HDAC6 using Fluor-de-Lys as substrate at 100 uM by spectrofluorometry
[20] = target: T3, Protein deacetylase HDAC6 (Homo sapiens); test: Activation of HDAC6 using Fluor-de-Lys as substrate at 10 uM by spectrofluorometry

Histone deacetylase 4 (Homo sapiens), sequence (P56524 whole entry): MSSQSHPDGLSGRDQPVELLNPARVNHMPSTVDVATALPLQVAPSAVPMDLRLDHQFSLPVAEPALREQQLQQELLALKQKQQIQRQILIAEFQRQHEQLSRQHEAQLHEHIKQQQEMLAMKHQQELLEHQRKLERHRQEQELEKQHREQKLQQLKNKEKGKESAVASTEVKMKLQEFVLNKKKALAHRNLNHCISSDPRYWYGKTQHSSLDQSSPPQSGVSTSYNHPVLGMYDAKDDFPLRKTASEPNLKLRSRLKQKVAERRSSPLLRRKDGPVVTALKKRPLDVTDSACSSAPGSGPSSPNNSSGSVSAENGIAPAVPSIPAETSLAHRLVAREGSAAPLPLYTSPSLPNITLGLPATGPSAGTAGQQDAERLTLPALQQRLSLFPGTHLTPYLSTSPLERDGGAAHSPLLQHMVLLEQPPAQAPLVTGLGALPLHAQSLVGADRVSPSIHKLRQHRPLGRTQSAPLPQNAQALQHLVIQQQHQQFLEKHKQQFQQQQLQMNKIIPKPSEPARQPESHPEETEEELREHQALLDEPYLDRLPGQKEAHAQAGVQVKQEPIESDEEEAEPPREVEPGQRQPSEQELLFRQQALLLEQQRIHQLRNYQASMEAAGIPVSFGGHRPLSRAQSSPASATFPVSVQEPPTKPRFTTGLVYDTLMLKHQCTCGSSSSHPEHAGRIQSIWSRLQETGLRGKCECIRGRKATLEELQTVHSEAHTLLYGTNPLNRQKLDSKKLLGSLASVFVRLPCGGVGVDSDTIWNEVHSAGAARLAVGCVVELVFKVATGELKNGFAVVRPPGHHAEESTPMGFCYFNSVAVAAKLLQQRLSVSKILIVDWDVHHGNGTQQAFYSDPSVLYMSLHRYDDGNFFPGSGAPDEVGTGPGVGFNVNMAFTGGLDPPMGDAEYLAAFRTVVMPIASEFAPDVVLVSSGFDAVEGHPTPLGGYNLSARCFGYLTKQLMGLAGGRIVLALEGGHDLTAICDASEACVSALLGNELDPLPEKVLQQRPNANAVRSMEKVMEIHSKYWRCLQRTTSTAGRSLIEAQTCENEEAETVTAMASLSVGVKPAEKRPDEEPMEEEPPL
Histone deacetylase 2 (Homo sapiens), sequence (Q92769 whole entry): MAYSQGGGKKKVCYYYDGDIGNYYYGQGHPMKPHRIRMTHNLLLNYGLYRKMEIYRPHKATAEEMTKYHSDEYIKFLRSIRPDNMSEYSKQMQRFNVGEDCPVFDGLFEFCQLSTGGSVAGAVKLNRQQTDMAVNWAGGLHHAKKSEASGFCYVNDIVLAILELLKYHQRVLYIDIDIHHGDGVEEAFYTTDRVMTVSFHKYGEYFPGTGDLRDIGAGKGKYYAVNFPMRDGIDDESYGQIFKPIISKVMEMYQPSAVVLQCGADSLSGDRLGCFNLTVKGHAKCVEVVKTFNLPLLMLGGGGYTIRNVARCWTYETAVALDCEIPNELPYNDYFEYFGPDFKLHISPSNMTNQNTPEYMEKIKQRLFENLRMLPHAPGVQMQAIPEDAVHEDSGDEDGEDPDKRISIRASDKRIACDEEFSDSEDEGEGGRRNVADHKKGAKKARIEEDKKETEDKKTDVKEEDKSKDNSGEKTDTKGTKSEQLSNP
Histone deacetylase 1 (Homo sapiens), sequence (Q13547 whole entry): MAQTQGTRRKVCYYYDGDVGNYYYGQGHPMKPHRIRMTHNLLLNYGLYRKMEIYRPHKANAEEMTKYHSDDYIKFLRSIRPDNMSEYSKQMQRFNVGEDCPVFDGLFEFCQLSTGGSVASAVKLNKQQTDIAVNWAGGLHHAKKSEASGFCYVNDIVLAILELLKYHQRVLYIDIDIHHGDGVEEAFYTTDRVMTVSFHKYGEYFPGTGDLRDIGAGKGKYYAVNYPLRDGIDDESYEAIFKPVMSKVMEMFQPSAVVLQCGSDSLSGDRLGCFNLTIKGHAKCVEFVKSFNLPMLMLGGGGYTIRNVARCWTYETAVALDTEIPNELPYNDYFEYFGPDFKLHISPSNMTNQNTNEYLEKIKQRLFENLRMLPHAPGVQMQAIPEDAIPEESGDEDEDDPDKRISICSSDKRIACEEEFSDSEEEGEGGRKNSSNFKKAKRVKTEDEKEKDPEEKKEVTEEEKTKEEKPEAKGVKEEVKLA
Histone deacetylase 3 (Homo sapiens), sequence (O15379 whole entry): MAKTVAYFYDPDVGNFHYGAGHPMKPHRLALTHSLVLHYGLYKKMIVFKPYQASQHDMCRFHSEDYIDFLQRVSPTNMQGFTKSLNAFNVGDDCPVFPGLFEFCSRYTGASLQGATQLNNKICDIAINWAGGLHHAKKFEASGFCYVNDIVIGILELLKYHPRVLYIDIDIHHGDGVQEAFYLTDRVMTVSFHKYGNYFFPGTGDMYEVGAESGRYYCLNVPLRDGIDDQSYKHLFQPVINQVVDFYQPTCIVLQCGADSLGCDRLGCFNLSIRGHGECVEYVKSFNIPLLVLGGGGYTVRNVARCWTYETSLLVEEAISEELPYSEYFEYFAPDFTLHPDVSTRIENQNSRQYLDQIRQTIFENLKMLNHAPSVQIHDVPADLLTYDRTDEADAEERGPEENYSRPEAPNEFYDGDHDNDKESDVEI

Compound	fold change (FC) [1]	inhibition [2]	Activity [3]	inhibition [4] [%]	Activity [5]	inhibition [6]	Activity [7]	inhibition [8]	inhibition [9]	Activity [10]	inhibition [11]	inhibition [12]	Activity [13]	Activity [14]	Activity [15]	Activity [16]	Activity [17]	Activity [18]	Activity [19]	Activity [20]
O=C(NC(=S)NCc1cccs1)c1ccccc1	3	inactive	inactive	12	inactive	5%	inactive	inactive	10%	inactive	9%	47%								
O=C(NC(=S)NCc1cc(C(F)(F)F)cc(C(F)(F)F)c1)c1ccccc1	1.1	inactive	inactive	10	inactive	inactive	inactive	inactive	10%	inactive	inactive	10%	inactive	inactive	inactive	inactive				
C[C@@H](NC(=S)NC(=O)c1ccccc1)c1ccccc1	1.5		inactive	8	inactive	6%	4%	inactive	45%	inactive	6%	5%								
O=C(NC(=S)NCc1ccc(F)cc1)c1ccccc1	3	5%	inactive	6		inactive		inactive	inactive	inactive	inactive	inactive	inactive	inactive	inactive	inactive	inactive	inactive	inactive	inactive
COc1cc(NC(=S)NC(=O)c2ccccc2)cc(OC)c1	8.4	inactive	inactive	10	inactive	5%	inactive	inactive	5%	inactive	6%	10%								
O=C(NC(=S)NCc1ccccc1)c1ccccc1F	1	inactive	inactive	14	inactive	inactive	inactive	inactive	inactive	inactive	inactive	5%	inactive	inactive	inactive	inactive			inactive	inactive
C[C@H](NC(=S)NC(=O)c1ccccc1)c1ccccc1	4.5	inactive	inactive	10	inactive	inactive	inactive	inactive	inactive	inactive	5%	10%			inactive	inactive			inactive	inactive
O=C(NC(=S)NCc1ccc(-c2ccccc2)cc1)c1ccccc1	1.1	inactive	inactive	10	inactive	inactive	inactive	inactive	inactive	inactive	10%	5%			inactive	inactive			inactive	inactive
